According to article PMC5543065, “Mechanistic and structural basis for activation of cardiac myosin force production by omecamtiv mecarbil” (Nature Communications, 2017):

Target: T1, bovine β-cardiac myosin S1 fragment (cardiac myosin, MYH7) (Bos taurus, UniProt Q9BE39)
T1 construct: Subfragment-1 (S1), AA 1–840; with MYL3 (Uniprot P85100)
Assay: ITC; crystal structure at […] Å; SAXS
Assay type: binding
Settings: read-out: Nucleotide state / ADP-VO4 (n = 5)

T1 sequence (Q9BE39 1-840): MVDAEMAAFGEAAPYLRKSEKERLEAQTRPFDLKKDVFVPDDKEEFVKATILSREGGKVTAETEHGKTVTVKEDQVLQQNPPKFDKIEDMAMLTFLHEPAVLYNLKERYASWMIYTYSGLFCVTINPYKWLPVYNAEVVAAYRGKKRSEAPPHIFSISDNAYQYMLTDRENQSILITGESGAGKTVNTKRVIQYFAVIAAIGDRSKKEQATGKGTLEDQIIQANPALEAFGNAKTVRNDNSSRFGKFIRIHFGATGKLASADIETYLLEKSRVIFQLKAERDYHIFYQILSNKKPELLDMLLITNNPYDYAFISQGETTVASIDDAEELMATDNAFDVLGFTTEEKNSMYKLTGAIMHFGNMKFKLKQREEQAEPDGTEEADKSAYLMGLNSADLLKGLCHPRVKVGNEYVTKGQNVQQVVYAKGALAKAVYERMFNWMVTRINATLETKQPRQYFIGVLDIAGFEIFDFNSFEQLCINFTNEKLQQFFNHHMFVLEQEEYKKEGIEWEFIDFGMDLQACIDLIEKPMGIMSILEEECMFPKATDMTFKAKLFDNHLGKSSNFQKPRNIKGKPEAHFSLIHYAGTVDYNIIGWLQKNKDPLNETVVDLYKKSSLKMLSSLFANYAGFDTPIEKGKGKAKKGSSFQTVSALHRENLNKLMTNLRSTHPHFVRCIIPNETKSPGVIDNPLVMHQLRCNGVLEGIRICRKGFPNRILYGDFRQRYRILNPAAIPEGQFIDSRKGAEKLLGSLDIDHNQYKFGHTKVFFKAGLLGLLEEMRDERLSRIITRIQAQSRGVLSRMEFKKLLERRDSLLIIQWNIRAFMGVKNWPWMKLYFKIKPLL
T1 sequence (P85100 2-199 partner): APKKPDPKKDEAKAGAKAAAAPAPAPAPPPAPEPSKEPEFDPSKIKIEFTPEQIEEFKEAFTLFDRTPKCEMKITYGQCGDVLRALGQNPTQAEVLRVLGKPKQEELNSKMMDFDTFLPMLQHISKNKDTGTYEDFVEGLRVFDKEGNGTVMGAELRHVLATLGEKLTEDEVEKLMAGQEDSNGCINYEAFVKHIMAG

Kd: 290 ± 40 nM
SMILES: COC(=O)N1CCN(Cc2cccc(NC(=O)Nc3ccc(C)nc3)c2F)CC1 [OM, Omecamtiv mecarbil]
